The values that follow come from ChEMBL document CHEMBL5338802, “To Fold or Not to Fold: Diastereomeric Optimization of an α-Helical Antimicrobial Peptide” (J Med Chem, 2023).

A value given as a limit tells only on which side of the number the result lay.

For one data set, the system named is Erythrocyte. Put plainly: Hemolytic activity in human RBC incubated for 4 hrs by visual analysis.
Settings: not given
Type of data set: toxicity, cell-based.
For the molecule `CC(C)C[C@H](NC(=O)[C@H](CC(C)C)NC(=O)[C@H](CC(C)C)NC(=O)[C@H](CCCCN)NC(=O)[C@H](CC(C)C)NC(=O)[C@H](CC(C)C)NC(=O)[C@@H](CCCCN)NC(=O)[C@H](CC(C)C)NC(=O)[C@H](CC(C)C)NC(=O)[C@@H](CCCCN)NC(=O)[C@H](N)CCCCN)C(N)=O`, the MHC is < 15.6 µg/mL.
Same read-out and setting: the figure for `CC(C)C[C@H](NC(=O)[C@@H](CC(C)C)NC(=O)[C@@H](CC(C)C)NC(=O)[C@H](CCCCN)NC(=O)[C@H](CC(C)C)NC(=O)[C@H](CC(C)C)NC(=O)[C@H](CCCCN)NC(=O)[C@H](CC(C)C)NC(=O)[C@@H](CC(C)C)NC(=O)[C@@H](CCCCN)NC(=O)[C@@H](N)CCCCN)C(N)=O` is 1000 µg/mL; for `CC(C)C[C@H](NC(=O)[C@H](CC(C)C)NC(=O)[C@H](CC(C)C)NC(=O)[C@@H](CCCCN)NC(=O)[C@@H](CC(C)C)NC(=O)[C@@H](CC(C)C)NC(=O)[C@@H](CCCCN)NC(=O)[C@H](CC(C)C)NC(=O)[C@H](CC(C)C)NC(=O)[C@H](CCCCN)NC(=O)[C@@H](N)CCCCN)C(N)=O` it is 1000 µg/mL; for `CC(C)C[C@H](NC(=O)[C@H](CC(C)C)NC(=O)[C@H](CC(C)C)NC(=O)[C@@H](CCCCN)NC(=O)[C@@H](CC(C)C)NC(=O)[C@@H](CC(C)C)NC(=O)[C@@H](CCCCN)NC(=O)[C@@H](CC(C)C)NC(=O)[C@H](CC(C)C)NC(=O)[C@H](CCCCN)NC(=O)[C@@H](N)CCCCN)C(N)=O` it is 250 µg/mL.
In the case of `CC(C)C[C@H](NC(=O)[C@H](CC(C)C)NC(=O)[C@H](CC(C)C)NC(=O)[C@H](CCCCN)NC(=O)[C@H](CC(C)C)NC(=O)[C@H](CC(C)C)NC(=O)[C@@H](CCCCN)NC(=O)[C@H](CC(C)C)NC(=O)[C@H](CC(C)C)NC(=O)[C@@H](CCCCN)NC(=O)[C@@H](N)CCCCN)C(N)=O`, the MHC was < 15.6 µg/mL.
Molecule `CC(C)C[C@H](NC(=O)[C@H](CCCCN)NC(=O)[C@H](CC(C)C)NC(=O)[C@H](CC(C)C)NC(=O)[C@@H](CCCCN)NC(=O)[C@H](CC(C)C)NC(=O)[C@H](CC(C)C)NC(=O)[C@@H](CCCCN)NC(=O)[C@H](N)CCCCN)C(=O)N[C@@H](CC(C)C)C(=O)N[C@H](CC(C)C)C(N)=O` returned an MHC of 1000 µg/mL.
Same read-out and setting: in the case of `CC(C)C[C@@H](NC(=O)[C@@H](CC(C)C)NC(=O)[C@@H](CC(C)C)NC(=O)[C@@H](CCCCN)NC(=O)[C@@H](CC(C)C)NC(=O)[C@@H](CC(C)C)NC(=O)[C@@H](CCCCN)NC(=O)[C@@H](CC(C)C)NC(=O)[C@@H](CC(C)C)NC(=O)[C@@H](CCCCN)NC(=O)[C@H](N)CCCCN)C(N)=O` it was 125 µg/mL; in that of `CC(C)C[C@H](NC(=O)[C@H](CC(C)C)NC(=O)[C@@H](CCCCN)NC(=O)[C@H](CC(C)C)NC(=O)[C@H](CC(C)C)NC(=O)[C@@H](CCCCN)NC(=O)[C@H](CC(C)C)NC(=O)[C@H](CC(C)C)NC(=O)[C@@H](CCCCN)NC(=O)[C@H](N)CCCCN)C(=O)N[C@H](CC(C)C)C(N)=O`, > 2000 µg/mL; in that of `CC(C)C[C@H](NC(=O)[C@H](CC(C)C)NC(=O)[C@H](CC(C)C)NC(=O)[C@H](CCCCN)NC(=O)[C@@H](CC(C)C)NC(=O)[C@@H](CC(C)C)NC(=O)[C@H](CCCCN)NC(=O)[C@@H](CC(C)C)NC(=O)[C@@H](CC(C)C)NC(=O)[C@@H](CCCCN)NC(=O)[C@@H](N)CCCCN)C(N)=O`, 250 µg/mL.
The same measure, in the same setting: the figure for `CC(C)C[C@H](NC(=O)[C@H](CC(C)C)NC(=O)[C@@H](CC(C)C)NC(=O)[C@@H](CCCCN)NC(=O)[C@H](CC(C)C)NC(=O)[C@H](CC(C)C)NC(=O)[C@H](CCCCN)NC(=O)[C@@H](CC(C)C)NC(=O)[C@@H](CC(C)C)NC(=O)[C@H](CCCCN)NC(=O)[C@@H](N)CCCCN)C(N)=O` is 1000 µg/mL; for `CC(C)C[C@H](NC(=O)[C@H](CC(C)C)NC(=O)[C@H](CC(C)C)NC(=O)[C@H](CCCCN)NC(=O)[C@H](CC(C)C)NC(=O)[C@@H](CC(C)C)NC(=O)[C@H](CCCCN)NC(=O)[C@@H](CC(C)C)NC(=O)[C@@H](CC(C)C)NC(=O)[C@@H](CCCCN)NC(=O)[C@@H](N)CCCCN)C(N)=O` it is 250 µg/mL; for `CC(C)C[C@H](NC(=O)[C@H](CC(C)C)NC(=O)[C@@H](CC(C)C)NC(=O)[C@@H](CCCCN)NC(=O)[C@H](CC(C)C)NC(=O)[C@H](CC(C)C)NC(=O)[C@@H](CCCCN)NC(=O)[C@@H](CC(C)C)NC(=O)[C@H](CC(C)C)NC(=O)[C@H](CCCCN)NC(=O)[C@@H](N)CCCCN)C(N)=O` it is 125 µg/mL.
Consider `CC(C)C[C@H](NC(=O)[C@H](CC(C)C)NC(=O)[C@@H](CCCCN)NC(=O)[C@H](CC(C)C)NC(=O)[C@H](CC(C)C)NC(=O)[C@@H](CCCCN)NC(=O)[C@@H](CC(C)C)NC(=O)[C@H](CC(C)C)NC(=O)[C@H](CCCCN)NC(=O)[C@@H](N)CCCCN)C(=O)N[C@H](CC(C)C)C(N)=O`, for which the MHC was > 2000 µg/mL.
Same read-out and setting: the figure for `CC(C)C[C@H](NC(=O)[C@H](CC(C)C)NC(=O)[C@@H](CC(C)C)NC(=O)[C@H](CCCCN)NC(=O)[C@@H](CC(C)C)NC(=O)[C@@H](CC(C)C)NC(=O)[C@H](CCCCN)NC(=O)[C@@H](CC(C)C)NC(=O)[C@@H](CC(C)C)NC(=O)[C@H](CCCCN)NC(=O)[C@@H](N)CCCCN)C(N)=O` is > 2000 µg/mL; for `CC(C)C[C@H](NC(=O)[C@@H](CC(C)C)NC(=O)[C@H](CC(C)C)NC(=O)[C@H](CCCCN)NC(=O)[C@@H](CC(C)C)NC(=O)[C@H](CC(C)C)NC(=O)[C@H](CCCCN)NC(=O)[C@@H](CC(C)C)NC(=O)[C@@H](CC(C)C)NC(=O)[C@H](CCCCN)NC(=O)[C@@H](N)CCCCN)C(N)=O` it is > 2000 µg/mL.
Still for that read-out and setting: the figure for `CC(C)C[C@H](NC(=O)[C@H](CC(C)C)NC(=O)[C@@H](CC(C)C)NC(=O)[C@H](CCCCN)NC(=O)[C@@H](CC(C)C)NC(=O)[C@H](CC(C)C)NC(=O)[C@@H](CCCCN)NC(=O)[C@H](CC(C)C)NC(=O)[C@@H](CC(C)C)NC(=O)[C@H](CCCCN)NC(=O)[C@@H](N)CCCCN)C(N)=O` is > 2000 µg/mL.
Same read-out and setting: in the case of `CC(C)C[C@H](NC(=O)[C@H](CC(C)C)NC(=O)[C@H](CC(C)C)NC(=O)[C@H](CCCCN)NC(=O)[C@@H](CC(C)C)NC(=O)[C@@H](CC(C)C)NC(=O)[C@@H](CCCCN)NC(=O)[C@H](CC(C)C)NC(=O)[C@H](CC(C)C)NC(=O)[C@H](CCCCN)NC(=O)[C@@H](N)CCCCN)C(N)=O` it was 31.3 µg/mL.
Turning to `CC(C)C[C@H](NC(=O)[C@@H](CC(C)C)NC(=O)[C@H](CC(C)C)NC(=O)[C@@H](CCCCN)NC(=O)[C@H](CC(C)C)NC(=O)[C@@H](CC(C)C)NC(=O)[C@H](CCCCN)NC(=O)[C@@H](CC(C)C)NC(=O)[C@H](CC(C)C)NC(=O)[C@@H](CCCCN)NC(=O)[C@@H](N)CCCCN)C(N)=O`, the MHC was > 2000 µg/mL.
Still for that read-out and setting: the figure for `CC(C)C[C@H](NC(=O)[C@H](CC(C)C)NC(=O)[C@H](CC(C)C)NC(=O)[C@H](CCCCN)NC(=O)[C@@H](CC(C)C)NC(=O)[C@@H](CC(C)C)NC(=O)[C@H](CCCCN)NC(=O)[C@@H](CC(C)C)NC(=O)[C@@H](CC(C)C)NC(=O)[C@H](CCCCN)NC(=O)[C@@H](N)CCCCN)C(N)=O` is 1000 µg/mL.
Same read-out and setting: the figure for `CC(C)C[C@H](NC(=O)[C@H](CC(C)C)NC(=O)[C@@H](CCCCN)NC(=O)[C@H](CC(C)C)NC(=O)[C@H](CC(C)C)NC(=O)[C@@H](CCCCN)NC(=O)[C@H](N)CCCCN)C(=O)N[C@@H](CCCCN)C(=O)N[C@@H](CC(C)C)C(=O)N[C@H](CC(C)C)C(=O)N[C@H](CC(C)C)C(N)=O` is > 2000 µg/mL; for `CC(C)CC(NC(=O)C(CC(C)C)NC(=O)C(CC(C)C)NC(=O)C(CCCCN)NC(=O)C(CC(C)C)NC(=O)[C@H](CC(C)C)NC(=O)C(CCCCN)NC(=O)C(CC(C)C)NC(=O)C(CC(C)C)NC(=O)C(CCCCN)NC(=O)C(N)CCCCN)C(N)=O` (stereo not given in full) it is 2000 µg/mL; for `CC(C)CC(NC(=O)C(CC(C)C)NC(=O)C(CC(C)C)NC(=O)C(CCCCN)NC(=O)C(CC(C)C)NC(=O)C(CC(C)C)NC(=O)C(CCCCN)NC(=O)C(CC(C)C)NC(=O)C(CC(C)C)NC(=O)C(CCCCN)NC(=O)C(N)CCCCN)C(N)=O` (racemic) it is 1000 µg/mL.
On to `CC(C)C[C@H](NC(=O)[C@H](CC(C)C)NC(=O)[C@H](CC(C)C)NC(=O)[C@H](CCCCN)NC(=O)[C@@H](CC(C)C)NC(=O)[C@@H](CC(C)C)NC(=O)[C@H](CCCCN)NC(=O)[C@H](CC(C)C)NC(=O)[C@H](CC(C)C)NC(=O)[C@H](CCCCN)NC(=O)[C@@H](N)CCCCN)C(N)=O`, for which the MHC came to 500 µg/mL.
On the same count and under the same terms, the figure for `CC(C)C[C@H](NC(=O)[C@H](CC(C)C)NC(=O)[C@@H](CC(C)C)NC(=O)[C@H](CCCCN)NC(=O)[C@H](CC(C)C)NC(=O)[C@@H](CC(C)C)NC(=O)[C@H](CCCCN)NC(=O)[C@H](CC(C)C)NC(=O)[C@@H](CC(C)C)NC(=O)[C@@H](CCCCN)NC(=O)[C@@H](N)CCCCN)C(N)=O` is > 2000 µg/mL.
Still for that read-out and setting: the figure for `CC(C)C[C@H](NC(=O)[C@@H](CC(C)C)NC(=O)[C@H](CCCCN)NC(=O)[C@@H](CC(C)C)NC(=O)[C@H](CC(C)C)NC(=O)[C@@H](CCCCN)NC(=O)[C@H](CC(C)C)NC(=O)[C@@H](CC(C)C)NC(=O)[C@H](CCCCN)NC(=O)[C@H](N)CCCCN)C(=O)N[C@H](CC(C)C)C(N)=O` is > 2000 µg/mL; for `CC(C)C[C@H](NC(=O)[C@H](CC(C)C)NC(=O)[C@H](CC(C)C)NC(=O)[C@@H](CCCCN)NC(=O)[C@H](CC(C)C)NC(=O)[C@H](CC(C)C)NC(=O)[C@@H](CCCCN)NC(=O)[C@H](CC(C)C)NC(=O)[C@H](CC(C)C)NC(=O)[C@@H](CCCCN)NC(=O)[C@H](N)CCCCN)C(N)=O` it is 1000 µg/mL.
Still for that read-out and setting: in the case of `CC(C)C[C@H](NC(=O)[C@H](CCCCN)NC(=O)[C@H](CC(C)C)NC(=O)[C@H](CC(C)C)NC(=O)[C@@H](CCCCN)NC(=O)[C@H](N)CCCCN)C(=O)N[C@@H](CC(C)C)C(=O)N[C@@H](CCCCN)C(=O)N[C@@H](CC(C)C)C(=O)N[C@H](CC(C)C)C(=O)N[C@H](CC(C)C)C(N)=O` it was 1000 µg/mL.

System in another data set: not listed separately
The data set can be described thus: Induction of membrane disruption in eukaryotic inner membrane mimic EYPC vesicles assessed as carboxyfluorescein leakage at 10 ug/ml measured after 240 secs by fluorescence based assay. In kind it is cell membranes. The following applies: dose 10.0 µg/ml, time 240.0 sec.
As to `CC(C)C[C@H](NC(=O)[C@H](CC(C)C)NC(=O)[C@@H](CC(C)C)NC(=O)[C@@H](CCCCN)NC(=O)[C@H](CC(C)C)NC(=O)[C@H](CC(C)C)NC(=O)[C@@H](CCCCN)NC(=O)[C@@H](CC(C)C)NC(=O)[C@H](CC(C)C)NC(=O)[C@H](CCCCN)NC(=O)[C@@H](N)CCCCN)C(N)=O`, the Activity worked out at 2%.
Take `CC(C)C[C@H](NC(=O)[C@H](CC(C)C)NC(=O)[C@@H](CC(C)C)NC(=O)[C@H](CCCCN)NC(=O)[C@@H](CC(C)C)NC(=O)[C@@H](CC(C)C)NC(=O)[C@H](CCCCN)NC(=O)[C@@H](CC(C)C)NC(=O)[C@@H](CC(C)C)NC(=O)[C@H](CCCCN)NC(=O)[C@@H](N)CCCCN)C(N)=O`: the Activity is 4%.
Same read-out and setting: in the case of `CC(C)C[C@H](NC(=O)[C@H](CC(C)C)NC(=O)[C@@H](CC(C)C)NC(=O)[C@H](CCCCN)NC(=O)[C@@H](CC(C)C)NC(=O)[C@H](CC(C)C)NC(=O)[C@@H](CCCCN)NC(=O)[C@H](CC(C)C)NC(=O)[C@@H](CC(C)C)NC(=O)[C@H](CCCCN)NC(=O)[C@@H](N)CCCCN)C(N)=O` it was 3%.
